Data as given in US7517654B2, “Peptide and a derivative thereof promoting cell adhesion and spreading” (Seoul National University Industry Foundation, priority 2004, dated 2009).

Tests used:
HOK-16B cells [1] = test: Cell adhesion assay on coated plates (crystal violet absorbance at 570 nm / cell counting); type: cell-based, human; details: 1 h; for cell adhesion activity of synthetic peptides / cell adhesion activity compared to the peptide P4 control: HOK-16B cells; for cell adhesion activity of synthetic peptides: plates coated with 10-50 μg/well peptide, serum-free medium; for cell adhesion activity compared to the peptide P4 control: 10 μg/well truncated or Ala-substituted peptide coating; for cell adhesion activity of rLG proteins: HOK-16B cells on rLG protein-coated plates, compared to BSA control
Protocol: The cell adhesion assay was performed according to a method reported by Okazaki et al. (J. Biol. Chem., 277:37070, 2002). In detail, 24-well culture plates (Nunc, Roskilde, Denmark) were coated with various amounts of rLG proteins at 4° C. overnight. The peptides were also coated on plates by drying overnight. The substrate-coated on the plates were blocked by adding 1% heat-inactivated bovine serum albumin (BSA) in PBS for 1 h at 37° C. and washed twice with PBS. The cells in the Experimental Example 1, detached by 0.05% tyrpsin and 0.53 mM EDTA in PBS and resuspended in culture media, were added (1×10^5 cells/500 μl) to each plate and incubated for 1 h at 37° C. After incubation, unattached cells were removed by rinsing twice with PBS. The attached cells were fixed with 10% formalin in PBS for 15 min, rinsed twice with PBS, and stained with 0.5% crystal violet for 1 h. The plates were gently rinsed with DDW three times and lysed with 2% SDS for 5 min. Absorbance was measured at 570 nm in a Bio-Rad Model 550 microplate reader (BioRad).
The cell adhesion and spreading activities on peptide-coated plates were examined using HOK-16B cells by the same method as Experimental Example 2. 24-well plates were coated with 10, 20, 30, 40 and 50 μg/well peptides P1 to P5, respectively. HOK-16B cells were added to peptide-coated plates and cultured for 1 h in serum-free medium for 1 hr. After the unbound cells were washed off, adherent cells were fixed and stained with crystal violet, and then the stained cells were analyzed. Absorbance was measured at 570 nm in a microplate reader. BSA and the rLG3 were used as negative control and positive control, respectively.
It was observed that peptide P4 promotes strong cell adhesion and spreading activities and binds to integrin α3β1 in the Example 4. Therefore, to determine the biologically active core sequences in peptide P4, five synthetic peptides (P4 D-I to P4 D-V), which are C-terminal truncated peptides from the peptide P4, and six synthetic peptides (P4 D-N1 to P4 D-N6), which are N-terminal truncated peptides from the peptide P4 were prepared (FIG. 6A) and examined for HOK-16B cell adhesion and spreading activities on peptide-coated plates by the present inventors. 24-well plates were coated with 10 μg/well C-terminal truncated peptides or N-terminal truncated peptides, and HOK-16B cells were added to the plates, and then cultured in serum-free medium for 1 hr. After the unbound cells were washed off, the adherent cells were fixed to stain with crystal violet, and the stained cells were analyzed. Absorbance was measured at 570 nm in a microplate reader. Peptide P4 and BSA were used as the positive and negative controls, respectively.
24-well plates were coated with 10 μg/well peptides, and HOK-16B cells were added to the plates, and then cultured in serum-free medium for 1 hr. After the unbound cells were washed off, the adherent cells were fixed to stain with crystal violet, and the stained cells were analyzed. Peptide P4 and BSA were used as the positive and negative controls, respectively. The results were expressed as mean ±SD of the four independent experiments.

HOK-16B cells [2] = test: Cell spreading activity assay on coated plates; type: cell-based, human; details: for cell spreading activity compared to the peptide P4 control: HOK-16B cells, 10 μg/well truncated or Ala-substituted peptide coating, 1 h; for cell spreading activity: HOK-16B cells on rLG protein- or peptide P1-P5-coated plates
Protocol: To identify spreading cells, attached cells were fixed with 10% formalin in PBS for 15 min, rinsed twice with PBS, and stained with 0.005% crystal violet for 1 h. The plates were then gently rinsed with DDW. To ensure a representative count, each plate was divided into quarters, two fields per quarter were photographed using an Olympus BX51 microscope at 100× magnification. Cells that had adopted a flattened, polygonal shape, with filopodia-and lamellipodia-like extensions were considered to be spreading cells. In contrast, cells that resisted being washed and remained tethered to the plate surface were considered to be non-spreading cells.
To examine the adhesion activity of peptide P4 in detail, the inventors examined whether the adherent cells were tethered to the substratum or spread over the substratum. The BSA and rLG3 were used as the negative control and positive control, respectively, the percentage of cells displaying a spreading morphology was quantified by dividing the number of spreading cells by the total number of bound cells.

Molecule	cell adhesion activity of synthetic peptides (HOK-16B cells [1])	cell adhesion activity compared to the peptide P4 control (HOK-16B cells [1])	cell adhesion activity of rLG proteins (HOK-16B cells [1])	cell spreading activity (HOK-16B cells [2])	also measured
P2: 12-mer peptide, residues 1297-1308 of SEQ ID NO: 2 (SLKRDVSLGGCS; listed as Homo sapiens)	no adhesion activity				
P3: 12-mer peptide, residues 1305-1316 of SEQ ID NO: 2 (GGCSLNKPPFLM; listed as Homo sapiens)	no adhesion activity				
peptide P1: 12-mer peptide, residues 1293-1304 of human laminin α3 chain SEQ ID NO: 2; control peptide (LTSNSLKRDVSL; listed as Homo sapiens)	no adhesion activity				
peptide P4 D-I: peptide P4 with a deletion of the C-terminal Arg residue (PPFLMLLKGST)		significantly lower cell adhesion activity than the peptide P4 control			
peptide P4 D-N1: peptide P4 with a deletion of one of the N-terminal two Pro residues (PFLMLLKGSTR)		did not show a significantly lower cell adhesion and spreading activities			cell spreading activity compared to the peptide P4 control (HOK-16B cells [2]): did not show a significantly lower cell adhesion and spreading activities
peptide P4 D-N2: peptide P4 with deletions of the N-terminal two Pro residues (FLMLLKGSTR)		showed a significantly lower cell adhesion and spreading activities			cell spreading activity compared to the peptide P4 control (HOK-16B cells [2]): showed a significantly lower cell adhesion and spreading activities
peptide P4-S1: peptide P4 in which the 8th Lys of SEQ ID NO: 1 is replaced by Ala (PPFLMLLAGSTR)		unaffected			cell spreading activity compared to the peptide P4 control (HOK-16B cells [2]): unaffected
peptide P5: 12-mer peptide, residues 1321-1332 of SEQ ID NO: 2 (STRFNKTKTFRI; listed as Homo sapiens)	very weak dose-dependent adhesion activity at concentrations ≧25 μg/well				
rLG5: recombinant His6-tagged LG5 domain, residues 1522-1713 of human laminin α3 chain (protein, listed as Homo sapiens, His6 tag, recombinant His6-tagged LG5 domain, residues 1522-1713 of human laminin α3 chain) SSSFGVSSCLGGPLEKGIYFSEEGGHVVLAHSVLLGPEFKLVFSIRPRSLTGILIHIGSQPGKHLCVYLEAGKVTASMDSGAGGTSTSVTPKQSLCDGQWHSVAVTIKQHILHLELDTDSSYTAGQIPFPPASTQEPLHLGGAPANLTTLRIPVWKSFFGCLRNIHVNHIPVPVTEALEVQGPVSLNGCPDQ			marginal adhesion activity	minimal cell spreading	
rLG2: recombinant His6-tagged LG2 domain, residues 959-1148 of human laminin α3 chain (protein, listed as Homo sapiens, His6 tag, recombinant His6-tagged LG2 domain, residues 959-1148 of human laminin α3 chain) KTFNLNTTEVEPCRRRKEESDKNYFEGTGYARVPTQPHAPIPTFGQTIQTTVDRGLLFFAENGDRFISLNIEDGKLMVRYKLNSELPKERGVGDAINNGRDHSIQIKIGKLQKRMWINVDVQNTIIDGEVFDFSTYYLGGIPIAIRERFNISTPAFRGCMKNLKKTSGVVRLNDTVGVTKKCSEDWKLVR			marginal adhesion activity	minimal cell spreading	
rLG4: recombinant His6-tagged LG4 domain, residues 1352-1555 of human laminin α3 chain (protein, listed as Homo sapiens, His6 tag, recombinant His6-tagged LG4 domain, residues 1352-1555 of human laminin α3 chain) DACSPLPKTQANHGALQFGDIPTSHLLFKLPQELLKPRSQFAVDMQTTSSRGLVFHTGTKNSFMALYLSKGRLVFALGTDGKKLRIKSKEKCNDGKWHTVVFGHDGEKGRLVVDGLRAREGSLPGNSTISIRAPVYLGSPPSGKPKSLPTNSFVGCLKNFQLDSKPLYTPSSSFGVSSCLGGPLEKGIYFSEEGGHVVLAHSVL			marginal adhesion activity	minimal cell spreading	
rLG1: recombinant His6-tagged LG1 domain, residues 782-978 of human laminin α3 chain, expressed in E. coli (protein, listed as Homo sapiens, His6 tag, recombinant His6-tagged LG1 domain, residues 782-978 of human laminin α3 chain, expressed in E. coli) RLPNDLEDLKGYTSLSLFLQRPNSRENGGTENMFVMYLGNKDASRDYIGMAVVDGQLTCVYNLGDREAELQVDQILTKSETKEAVMDRVKFQRIYQFARLNYTKGATSSKPETPGVYDMDGRNSNTLLNLDPENVVFYVGGYPPDFKLPSRLSFPPYKGCIELDDLNENVLSLYNFKKTFNLNTTEVEPCRRRKEES			marginal adhesion activity	minimal cell spreading	
